Results on one molecule are retold here after PMC6359675, “Functionalization of the Chalcone Scaffold for the Discovery of Novel Lead Compounds Targeting Fungal Infections” (Molecules, 2019).

In series [1] the test system is C. albicans ATCC 10231. Nature of the series: In vitro susceptibility testing, microdilution broth (EUCAST), C. albicans control strain. The note with it: Candida albicans; for IC50: ATCC10231, C. albicans ATCC 10231, mean and 95% confidence interval. The series is classed as cell-based, Candida albicans.
Series [2] can be described thus: Cytotoxicity test on Vero cells (WST8/CCK-8 cell viability). The note with it: African green monkey, Vero cells (ATCC CCL-81), Vero cells, mean and 95% confidence interval. It is filed as cell-based, African green monkey. (Formazan colour is commonly taken as a measure of viable cells.)
In another series the test system is C. albicans. The series is described as follows: In vitro susceptibility testing, C. albicans clinical isolate. It is filed as cell-based. The note with it: Candida albicans; clinical isolate; mean and 95% confidence interval; read-out: IC50 C. albicans. The source says: (§1) The yeasts included in the present study were Candida albicans ATCC 10231 (American Type Culture Collection) and a collection of yeasts recovered from a variety of clinical specimens, i.e., blood, urine, genital swabs, bronchoalveolar lavage, nail specimens, collected at the Microbiology Unit, St. Orsola Malpighi University Hospital, Bologna, Italy. The clinical strain isolates were identified by standard procedures, including colony morphology on chromogenic agar (CHROMagar Candida medium, Becton Dickinson, Heidelberg, Germany) and confirmed by MALDI Biotyper System using matrix-assisted laser desorption ionization–time of flight mass spectrometry (MALDI-TOF MS, Bruker Daltonik, GmbH, Germany).
(§2) The in vitro antifungal activity of the chalcones was evaluated by a microdilution broth method in accordance with the guidelines provided by the EUCAST Edef 7.3 [22]. Briefly, all strains were cultured on Sabauraud dextrose, then inocula, prepared at 0.5 McFarland, were diluted 1:20 in RPMI-1640 medium (Gibco®, ThermoFisher Scientific Inc., Waltham, MA, USA), containing glucose 2%, 0.3% levo-glutamine buffered to pH 7.0 with 0.165 M 3-(N-morpholino)propanesulfonic acid (MOPS) to yield 1-5 × 10^5 cells/mL. A total of 100 µL of the yeast suspension was inoculated in a 96-well microplate and incubated with 100 µL of serially 2-fold dilution of the compound in the range 200–6.25 µM. The following controls were included: yeast suspensions incubated in RPMI-1640 culture medium (positive growth control), or supplemented with dilutions of DMSO, or fluconazole (Sigma-Aldrich, St. Louis, MO, USA) as a commercial drug. To check the background turbidity of reagents and the sterility of the procedure, dilutions of each compound were incubated in RPMI-1640 culture medium, without yeast inoculum. The inoculated plate was incubated at 37 °C for 24 h, and subsequently the optical density at 630 nm was measured by the Multiskan Ascent microplate reader (Thermo Fisher Scientific Inc.). The effectiveness of the compounds was expressed as percent inhibition relative to the positive growth control when the inhibition […] the 50% at 100 µM. The IC50 value was determined by interpolation of the dose–response curves generated by plotting the percentages of growth inhibition, relative to the drug-free control (set to 100% of growth), as a function of the tested concentrations (on a logarithm scale). Statistical analysis was carried out by the nonlinear regression method using GraphPad Prism version 5.0 for Windows (GraphPad Software, San Diego, CA, USA). All assays were performed in triplicate and at least two independent experiments were carried out.

For a further series, the system named is C. parapsilosis. Nature of the series: In vitro susceptibility testing, C. parapsilosis clinical isolate. It is filed as cell-based. The note with it: Lodderomyces parapsilosis; clinical isolate; read-out: IC50 C. parapsilosis.
Excerpt: as §1, §2

Another series deals with C. lusitaniae. Nature of the series: In vitro susceptibility testing, C. lusitaniae clinical isolate. The series is classed as cell-based. To be noted: Clavispora lusitaniae; clinical isolate; read-out: IC50 C. lusitaniae.
Excerpt: as §1, §2

Another series has as its system C. tropicalis. The series is described as follows: In vitro susceptibility testing, C. tropicalis clinical isolate. It is filed as cell-based. The note with it: Candida tropicalis; clinical isolate; read-out: IC50 C. tropicalis.
Excerpt: as §1, §2

A further series has as its system C. krusei. The series is described as follows: In vitro susceptibility testing, C. krusei clinical isolate. It is filed as cell-based. To be noted: Pichia kudriavzevii; clinical isolate; read-out: IC50 C. krusei.
Excerpt: as §1, §2

The test system of the next series is C. glabrata. Nature of the series: In vitro susceptibility testing, C. glabrata clinical isolate. The note with it: Nakaseomyces glabratus; clinical isolate; read-out: IC50 C. glabrata. The series is classed as cell-based.
Excerpt: as §1, §2

A further series deals with C. utilis. The series is described as follows: In vitro susceptibility testing, C. utilis clinical isolate. It is filed as cell-based. To be noted: Williopsis jadinii; clinical isolate; read-out: IC50 C. utilis.
Excerpt: as §1, §2

The subject of another series is C. neoformans. The series is described as follows: In vitro susceptibility testing, C. neoformans clinical isolate. The series is classed as cell-based. To be noted: Cryptococcus neoformans; clinical isolate; read-out: IC50 C. neoformans.
Excerpt: as §1, §2

Another series has as its system S. clavata. The series is described as follows: In vitro susceptibility testing, S. clavata clinical isolate. To be noted: clinical isolate; read-out: IC50 S. clavata. The series is classed as cell-based.
Excerpt: as §1, §2

The test system of another series is R. mucilaginosa. The series is described as follows: In vitro susceptibility testing, R. mucilaginosa clinical isolate. The note with it: clinical isolate; read-out: IC50 R. mucilaginosa. The series is classed as cell-based.
Excerpt: as §1, §2

Series [3] deals with C. albicans ATCC 10231. Nature of the series: Effect on yeast-to-hyphae transition. The series is classed as cell-based, Candida albicans. To be noted: compound at IC50 value, 2 h. The text has this: Blastospore and hyphae forms were observed under a light microscope.
In series [4] the test system is C. albicans ATCC 10231. The series is described as follows: Agar-invasive hyphal growth (Spider agar assay). It is filed as cell-based, Candida albicans. The note with it: compounds at IC50 values, three days at 37 °C. As for the experimental part: Aliquots (2 µL) of a suspension of C. albicans ATCC 10231 (5 × 10^5 cells/mL) were spotted onto medium in triplicate and the morphology of growing colonies was observed following three days of incubation at 37 °C. Spider agar plates without chalcones, containing DMSO, served as the control. The presence of filaments at the colony edges was determined using a light microscope under 10× magnification.

Series [5] relates to C. albicans ATCC 10231. The series is described as follows: Disruption of preformed mature biofilm (biofilm metabolic activity). It is filed as cell-based, Candida albicans. To be noted: compounds added to preformed mature biofilm; statistically significant.

“And” between values parts separate entries of the source, which are not always exact repeats. Identical values can stand only once. Like-named read-outs stand apart in the source and are kept apart here.

`O=C(/C=C/c1cccc(F)c1)c1cc(F)ccc1O` [Compound 7, (E)-1-(5-Fluoro-2-hydroxyphenyl)-3-(3-fluorophenyl)prop-2-en-1-one]: the IC50 was 53 µM in the series on C. albicans ATCC 10231 [1] (read-out: IC50); 13.8 µg/mL with C. albicans ATCC 10231 [1] (read-out: IC50 [μg/mL]); 32.1 µM and 8.4 µg/mL in the series with C. albicans; 100 µM and 26 µg/mL in the series on C. parapsilosis; 31.7 µM and 8.2 µg/mL in the series with C. lusitaniae; > 200 µM and > 52 µg/mL with C. tropicalis. In addition, the IC50 was 100 µM and 26 µg/mL with C. krusei; 100 µM and 26 µg/mL with C. glabrata; 100 µM and 26 µg/mL in the series on C. utilis; 15.6 µM and 4.1 µg/mL in the series on C. neoformans; 37 µM and 9.6 µg/mL in the series with S. clavata; 80 µM and 20.8 µg/mL in the series with R. mucilaginosa. Further, testing at 100 µM in the series on C. albicans ATCC 10231 [1] (ATCC10231, at 100 μM, C. albicans ATCC 10231, 24 h) gave an inhibition of 69 ± 12.4%. For the same molecule, the CC50 at 72 h in series [2] (read-out: CC50) was determined as 182 µM; in [2] (read-out: CC50 [μg/mL]), 47.3 µg/mL. For the same molecule, in the series on C. albicans ATCC 10231 [3], the “cell morphology after treatment” value is reported as “mainly formed blastospores, some rare budding cells but no hyphae”. In addition, in the series with C. albicans ATCC 10231 [4], the “invasion of Spider medium (filamentation)” value was “unable to penetrate the medium”. The “reduction of metabolism of sessile cells in mature biofilm” value in the series with C. albicans ATCC 10231 [5] is less than 25%.
